# Test system: lashes and adjacent hairs of the treated eye
# Assay: Eyelash / hair growth observed in glaucoma patients treated in one eye
# Assay type: in vivo, human
# Settings: glaucoma patient treated in only one eye
# Description: In the course of treating patients having glaucoma, treatment may only be appropriate in one eye. […] The lash appearance on the lids of the treated eyes would have appeared quite attractive if it represented a bilateral phenomenon. As a result of its asymmetric nature, the long lashes on one side could be construed as disturbing from a cosmetic standpoint. A systemic examination was preformed as a result of the asymmetric phenomenon. It soon became apparent that this altered appearance was not an isolated finding. […] Definite differences could be identified to varying degrees in the lashes and adjacent hairs of all patients who were taking the drug on a unilateral basis for longer than 6 months.
# The changes in the lashes were apparent on gross inspection in several patients once attention was focused on the issue. In those with light colored hair and lashes, the differences were only seen easily with the aid of the high magnification and lighting capabilities of the slit lamp biomicroscope. In the course of glaucoma follow-up examination, attention is generally immediately focused on the eye itself. As a result of the high power magnification needed only one eye is seen at a time and the eye is seen at a high enough power that the lashes are not in focus. […]
structure (smiles),measurement,value
CCNC(=O)CCC/C=C\C[C@@H]1[C@@H](/C=C/[C@@H](O)CCc2ccccc2)[C@H](O)C[C@@H]1O [bimatoprost],lash appearance in the treated eye versus the non-treated eye,"longer, thicker, and fuller"
